Reference: patent US5635391A, “Isolated DNA encoding a nitrilase polypeptide, hosts containing, and expression thereof optionally assisted by a E. coli GroE chaperone polypeptide” (priority 1992, dated 1997)

How the values were obtained:
purified nitrilase = molecular target: T1, purified nitrilase (Comamonas testosteroni, UniProt Q59329); experiment: Relative activity of the purified nitrilase on various nitriles; format: biochemical, Comamonas testosteroni sp.; details: acetate buffer 10 mM, pH 4; substrate 10 mM; 25° C.
T1 construct: about 280 kDa oligomer of about 38 kDa subunits
Protocol: The activities of the purified nitrilase were measured on adiponitrile, 5-cyanovaleramide, 5-cyanovaleric acid, benzonitrile, propionitrile and acrylonitrile.
COMMON CONDITIONS: acetate buffer=10 mM, pH 4; substrate=10 mM; volume=3 ml; T=25° C.; reaction time=1 or 3 h; proteins: from 5 to 30 μg/ml.

E. coli PXL2158 = experiment: Hydrolysis of methiononitrile with E. coli PXL2158 in suspension; format: cell-based; details: test 9; whole cells; MetCN 100 mM; DW 17.2 g/l; pH 7; 28° C.
Protocol: (§1) The recombinant strains used in this example are those from E. coli TG1, integrating the plasmids PXL2158 and PXL2035 described above and containing the nitrilase gene of Comamonas testosteroni.
(§2) Tests 9 to 13 show the nitrilase activity at 28° C., of these recombinant strains with respect to the methiononitrile, according to various operating conditions. The strain culture is performed as explained in example 6.1.The following Table 7 summarizes the conditions and the results of tests 9 to 13.

E. coli PXL2158 + 2035 [1] = experiment: Hydrolysis of methiononitrile with free and resin-fixed cells of E. coli PXL2158 + 2035; format: cell-based; details: test 15; free cells; dry cells 1.3 g/l; MetCN 50 mM; pH7; 28° C.
Protocol: The E. coli PXL 2158+2035 free cells are fixed on resin according to the technique described in U.S. Pat. No. 4,732,851, so as to form a biocatalyst.
CONDITIONS: volume=5 ml; potassium phosphate buffer=100 mM pH7, [MetCN]=50 mM; T 28° C.; kinetics over 3 h; DB=dry biocatalyst; DC=dry cells.
Two methiononitrile batches were tested: purified methiononitrile in the form of a sulfate and free methiononitrile.
CONDITIONS: volume=5 ml; potassium phosphate buffer=100 mM pH7; T 28° C.; kinetics over 3 h; *=percent with respect to the formed acid; DB=dry biocatalyst; DC=dry cells.

E. coli PXL2158 + 2035 [2] = experiment: Hydrolysis of methiononitrile with E. coli PXL2158 + 2035 in suspension; format: cell-based; details: for Initial specific activity: whole cells, DW 1.4 g/l, pH 7, 28° C.
Protocol: as §1, §2

E. coli TG1 pXL2035,2158 = experiment: Nitrilase activity of recombinant strain E. coli TG1 pXL2035,2158; format: cell-based; details: DW 0.2 g/l; 1 ml; pH 7.0; substrate 50 mM
Protocol: (§3) The activities of these strains, induced or non-induced, are measured on adiponitrile and 5-cyanovalerate at different pH values and are compared with the negative control strains: E. coli TG1, E. coli TG1 (pXL2035) and Pseudomonas putida G2081.
(§4) The cultures are carried out under the conditions described in Table 4. During the exponential growth phase, one of the two cultures of the recombinant strain is induced with 1 mM IPTG; after 2 h at 37° C., this culture is treated.
(§5) The conditions of the specific activity measurements and the results are collated in Table 5.
(§6) COMMON CONDITIONS: [substrate]=50 mM; T=25° C.; buffer 50 mM; kinetics over 90 min for 1 to 3 and over 120 min for 4 to 8.
(§7) ABBREVIATIONS: W=whole cells; S=sonicated cells; Ua=μmols of cyanovalerate produced/h; Ub=μmols of adipate produced/h; AdN=adiponitrile; CVA=5-cyanovalerate. DW=dry weight.

E. coli TG1 = experiment: Nitrilase activity of control strain E. coli TG1; format: cell-based; details: no IPTG, whole cells, DW 15.5 g/l, 1 ml, substrate 50 mM, 25° C.
Protocol: as §3, §4, §5, §6, §7

E. coli TG1 pXL2158 = experiment: Nitrilase activity of recombinant strain E. coli TG1 pXL2158; format: cell-based; details: DW 1.25 g/l; 1 ml; pH 7.0; substrate 50 mM
Protocol: as §3, §4, §5, §6, §7

P. putida G2081 pXL2169 = experiment: Nitrilase activity of recombinant strain P. putida G2081 pXL2169; format: cell-based, Pseudomonas putida; details: no IPTG; whole cells; DW 0.25 g/l; 1 ml; pH 7.0; substrate 50 mM
Protocol: as §3, §4, §5, §6, §7

E. coli TG1 pXL2087 = experiment: Nitrilase activity of recombinant strain E. coli TG1 pXL2087; format: cell-based; details: substrate 50 mM
Protocol: as §3, §4, §5, §6, §7

T1 sequence (Q59329 entry or part of it): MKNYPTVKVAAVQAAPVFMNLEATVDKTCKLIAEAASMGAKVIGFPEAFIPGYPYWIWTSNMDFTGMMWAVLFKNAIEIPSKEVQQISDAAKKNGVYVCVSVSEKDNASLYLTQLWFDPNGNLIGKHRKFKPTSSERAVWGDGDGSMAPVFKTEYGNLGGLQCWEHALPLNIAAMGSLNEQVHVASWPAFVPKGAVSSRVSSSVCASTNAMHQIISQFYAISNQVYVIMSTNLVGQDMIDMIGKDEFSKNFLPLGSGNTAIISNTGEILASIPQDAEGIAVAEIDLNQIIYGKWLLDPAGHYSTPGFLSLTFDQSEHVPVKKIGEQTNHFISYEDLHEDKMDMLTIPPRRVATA

SMILES: N#Cc1ccccc1 [Benzonitrile, benzonitrile]
- RELATIVE ACTIVITY (purified nitrilase): 4%

SMILES: CSCCC(N)C#N (stereo not drawn) [MetCN, methiononitrile]
- Initial specific activity (E. coli PXL2158): 8 μmol/h x mg of DW
- Specific Initial Activity (E. coli PXL2158 + 2035 [1]): 63 μmol/hx mg DC
- nitrilase activity (E. coli PXL2158 + 2035 [2]; comment on Table 7): about 80 μmol of MEtCN/hxmg of DW
- Initial specific activity (E. coli PXL2158 + 2035 [2]; test 10, MetCN 50 mM): 77 μmol/h x mg of DW
- Initial specific activity (E. coli PXL2158 + 2035 [2]; test 11, MetCN 50 mM): 62 μmol/h x mg of DW
- Initial specific activity (E. coli PXL2158 + 2035 [2]; test 12, MetCN 100 mM): 73 μmol/h x mg of DW
- Initial specific activity (E. coli PXL2158 + 2035 [2]; test 13, MetCN 200 mM): 61 μmol/h x mg of DW
- activity relative to E. coli PXL2158 alone (E. coli PXL2158 + 2035 [2]; tests 9 and 10): ~10 times

SMILES: N#CCCCCC(N)=O [5-Cyanovaleramide, 5-cyanovaleramide]
- RELATIVE ACTIVITY (purified nitrilase): 28%

SMILES: C=CC#N [Acrylonitrile, acrylonitrile]
- RELATIVE ACTIVITY (purified nitrilase): 23%

SMILES: CCC#N [Propionitrile, propionitrile]
- RELATIVE ACTIVITY (purified nitrilase): 6%

SMILES: N#CCCCCC(=O)O [5-Cyanovalerate, 5-cyanovalerate]
- Activity Ub (E. coli TG1 pXL2035,2158): 70 μmols of adipate produced/h
- Activity Ub (E. coli TG1; pH 5.2): 0 μmols of adipate produced/h
- Activity Ub (E. coli TG1; pH 7.0): 0 μmols of adipate produced/h
- Activity Ub (E. coli TG1 pXL2158): 8.3 μmols of adipate produced/h
- Activity Ua (P. putida G2081 pXL2169): 130 μmols of cyanovalerate produce
- Activity Ub (E. coli TG1 pXL2087; +IPTG, sonicated cells, DW 1.4 g/l, 1 ml, pH 5.2): 25 μmols of adipate produced/h
- Activity Ub (E. coli TG1 pXL2087; +IPTG, sonicated cells, DW 1.4 g/l, 2 ml, pH 7.0): 8 μmols of adipate produced/h
- Activity Ub (E. coli TG1 pXL2087; +IPTG, whole cells, DW 1.4 g/l, 1 ml, pH 4.0): 28 μmols of adipate produced/h
- Activity Ub (E. coli TG1 pXL2087; +IPTG, whole cells, DW 1.4 g/l, 1 ml, pH 5.2): 27 μmols of adipate produced/h
- Activity Ub (E. coli TG1 pXL2087; +IPTG, whole cells, DW 1.4 g/l, 2 ml, pH 7.0): 8 μmols of adipate produced/h
- Activity Ub (E. coli TG1 pXL2087; no IPTG, sonicated cells, DW 1.0 g/l, 1 ml, pH 5.2): 13 μmols of adipate produced/h
- Activity Ub (E. coli TG1 pXL2087; no IPTG, sonicated cells, DW 1.0 g/l, 1 ml, pH 7.0): 3.2 μmols of adipate produced/h
- Activity Ub (E. coli TG1 pXL2087; no IPTG, whole cells, DW 1.2 g/l, 2 ml, pH 4.0): 10 μmols of adipate produced/h
- Activity Ub (E. coli TG1 pXL2087; no IPTG, whole cells, DW 1.2 g/l, 2 ml, pH 5.2): 14 μmols of adipate produced/h
- Activity Ub (E. coli TG1 pXL2087; no IPTG, whole cells, DW 1.2 g/l, 2 ml, pH 7.0): 3.4 μmols of adipate produced/h
